In PMC9653173, “Trotabresib (CC-90010) in combination with adjuvant temozolomide or concomitant temozolomide plus radiotherapy in patients with newly diagnosed glioblastoma” (Neuro-Oncology Advances, 2022):
Like-named read-outs stand apart in the source and are kept apart here.

Tests used:
[1] = Trotabresib plasma pharmacokinetics, CC-90010-GBM-002; format: in vivo, human; conditions: for Cmax: read-out: Cmax, GM (GCV%)
Description: The sample size was not based on strict statistical power calculations. Safety, efficacy, and pharmacodynamic analyses were summarized using descriptive statistics. Plasma pharmacokinetic parameters were calculated by the noncompartmental analysis method from plasma concentration–time profiles.

CCR1 mRNA = assay: Blood CCR1 mRNA pharmacodynamics; format: in vivo, human
Description: (§1) Plasma samples were collected during the first treatment cycle for investigation of trotabresib pharmacokinetics and pharmacodynamics. Plasma pharmacokinetic parameters assessed included peak plasma concentration (Cmax), time to peak plasma concentration (tmax), area under the plasma concentration–time curve (AUC), and terminal half-life (t½). Pharmacodynamic markers assessed included blood levels of CCR1 and HEXIM1 mRNA, which are established markers of BET inhibitor target engagement.[17],[22],[37],[38]

HEXIM1 mRNA = assay: Blood HEXIM1 mRNA pharmacodynamics; format: in vivo, human
Description: as §1

MGMT = assay: In vivo downregulation of MGMT; conditions: preclinical; Supplementary Figure S2
Description: Supplementary Figure 2. In vivo downregulation of MGMT (A) mRNA by trotabresib as a single agent and (B) protein by trotabresib in combination with TMZ.

[2] = design: method as in PMID 36455228; conditions: recurrent high-grade glioma, trotabresib 30 mg/day on days 1–4 before surgery; cited from earlier work
MYC = conditions: in vitro; ref Bristol Myers Squibb; data on file; cited from earlier work

Cn1cc(-c2cc(S(C)(=O)=O)ccc2OCC2CC2)c2ccccc2c1=O [Trotabresib]
Reduction in plasma trotabresib concentration ([1]; 168 hours post-dose): > 75%
mean t½ ([1]; all cohorts, standard deviation ± 27.2): ~ 74 h
Increase in exposure with dose ([1]; both treatment settings, 15-45 mg): proportional to dose
Cmax ([1]; human, plasma, oral, adjuvant trotabresib 15 mg + TMZ, Day 1): 201 ng/mL
Tmax ([1]; human, plasma, oral, adjuvant trotabresib 15 mg + TMZ, Day 1, read-out: tmax, median (range)): 1 h
Cmax ([1]; human, plasma, oral, adjuvant trotabresib 15 mg + TMZ, Day 4): 433 ng/mL
Tmax ([1]; human, plasma, oral, adjuvant trotabresib 15 mg + TMZ, Day 4, read-out: tmax, median (range)): 1.5 h
Cmax ([1]; human, plasma, oral, adjuvant trotabresib 30 mg + TMZ, Day 1): 306 ng/mL
Tmax ([1]; human, plasma, oral, adjuvant trotabresib 30 mg + TMZ, Day 1, read-out: tmax, median (range)): 2 h
Cmax ([1]; human, plasma, oral, adjuvant trotabresib 30 mg + TMZ, Day 4): 822 ng/mL
Tmax ([1]; human, plasma, oral, adjuvant trotabresib 30 mg + TMZ, Day 4, read-out: tmax, median (range)): 1.5 h
Cmax ([1]; human, plasma, oral, adjuvant trotabresib 45 mg + TMZ, Day 1): 522 ng/mL
Tmax ([1]; human, plasma, oral, adjuvant trotabresib 45 mg + TMZ, Day 1, read-out: tmax, median (range)): 2 h
Cmax ([1]; human, plasma, oral, adjuvant trotabresib 45 mg + TMZ, Day 4): 1160 ng/mL
Tmax ([1]; human, plasma, oral, adjuvant trotabresib 45 mg + TMZ, Day 4, read-out: tmax, median (range)): 1.5 h
half-life ([1]; human, plasma, oral, all cohorts, standard deviation ± 27.2, read-out: mean t½ (converted)): 74.2 h
Cmax ([1]; human, plasma, oral, concomitant trotabresib 15 mg + TMZ + RT, Day 1): 167 ng/mL
Tmax ([1]; human, plasma, oral, concomitant trotabresib 15 mg + TMZ + RT, Day 1, read-out: tmax, median (range)): 2 h
Cmax ([1]; human, plasma, oral, concomitant trotabresib 15 mg + TMZ + RT, Day 4): 383 ng/mL
Tmax ([1]; human, plasma, oral, concomitant trotabresib 15 mg + TMZ + RT, Day 4, read-out: tmax, median (range)): 1.3 h
Cmax ([1]; human, plasma, oral, concomitant trotabresib 30 mg + TMZ + RT, Day 1): 309 ng/mL
Tmax ([1]; human, plasma, oral, concomitant trotabresib 30 mg + TMZ + RT, Day 1, read-out: tmax, median (range)): 2 h
Cmax ([1]; human, plasma, oral, concomitant trotabresib 30 mg + TMZ + RT, Day 4): 874 ng/mL
Tmax ([1]; human, plasma, oral, concomitant trotabresib 30 mg + TMZ + RT, Day 4, read-out: tmax, median (range)): 1.5 h
Tmax ([1]; human, plasma, oral, day 4, all cohorts, read-out: tmax): 0.5 to 4 h
Blood CCR1 mRNA expression, lower than at baseline (CCR1 mRNA; RP2D 30 mg, day 4, 2–4 h post-dose, adjuvant and concomitant settings): ≥ 50%
Time to return of CCR1 mRNA expression to baseline levels (CCR1 mRNA; RP2D 30 mg, post-dose in cycle 1): ≤ 168 h
Blood CCR1 mRNA modulation (CCR1 mRNA; trotabresib 15 mg, adjuvant or concomitant cohorts): no decrease in CCR1 expression
Duration of HEXIM1 mRNA elevation (HEXIM1 mRNA; RP2D 30 mg, cycle 1): remained above baseline until 168 h post-dose
Increase in blood HEXIM1 mRNA expression (HEXIM1 mRNA; RP2D 30 mg, days 3 and 4, adjuvant and concomitant cohorts): 2.5- to 4.0 fold
HEXIM1 modulation vs dose (HEXIM1 mRNA; both cohorts): increased with trotabresib dose
MGMT expression (MGMT): downregulates MGMT expression in a dose-dependent manner
Brain tumor tissue:plasma ratio [2]: 0.84
MYC expression (MYC): downregulated in vitro
